This is an account of results in US11712443B2, “17α-monoesters and 17α,21-diesters of cortexolone for use in the treatment of tumors” (COSMO TECHNOLOGIES LTD., priority 2014, dated 2023).

SMILES strings stand for the structures.

The test system of series [1] is MiaPaca2. Conditions: human, 3 days.
For series [2], the system named is MiaPaca2 cells. Put plainly: Cell cycle arrest, propidium iodide staining. The series is classed as cell-based. Conditions: 24 hours; FIG. 10. The method, then:
Apoptosis can occur at the G1/S or G2/M transition of the cell cycle. Cells were treated with CB-03-10 for 24 hours then fixed with paraformaldehyde and stained with propidium iodide. […] The lack of G1 block indicates no effect on p53. The S & G2/M blocks may indicate activity on cell cycle check point molecules. For S phase, a possible target is the cyclin dependent kinase 2 (CDK2). Gemzar and cisplatin are example drugs that act in S phase. For G2, a possible target is CDK1.

Series [3] relates to MCF7. Briefly: In vitro proliferation / cytotoxic assay on breast cancer cells (cell titer glo). Conditions: human, 3 days. The method, then:
For the cytotoxic assay: cells seeded in 96 well flat bottom culture plates in media containing charcoal stripped serum. After 24 hours test compounds were added to the cells. DMSO was used as the vehicle negative control and RU486 as the positive control. After 72 hours incubation cell were harvested, lysed and viability determined using the cell titer glow assay for viability.
On the technique in general: In ATP-based viability assays light output follows the ATP content of the culture.

Series [4] deals with stimulated PBMC. Put plainly: IC50 on stimulated PBMC (actively dividing cells).
Description: The IC^50 in PBMC were tested in 2 different activation status:
stimulated—actively dividing cells
IC50 of the compounds was determined on fresh cells isolated from human blood (PBMC). The compounds toxicity was determined as follow: Therapeutic Index=Safety/Potency=IC50 stimulated PBMC_/IC50 cancer cell
Series [5] is described as follows: In vitro metabolism in human plasma. The class given is in vitro ADME. Conditions: 37 C; liquid chromatography; FIG. 13. The protocol:
To obtain some insights on the metabolism of CB-03-10 in human and rat plasma, a specific assay was designed. Briefly the compound was incubated at different time in human and rat plasma at 37 C. After incubation the samples were tested for presence of the intact compound by liquid chromatography.

As for `CCCCC(=O)O[C@]1(C(=O)COC(=O)CC)CC[C@H]2[C@@H]3CCC4=CC(=O)CC[C@]4(C)[C@H]3CC[C@@]21C` [CB-03-10, cortexolone 17α-valerate-21-propionate], in series [1], the “TI on Resting PBMC” value was 3, the “TI on Stimulated PBMC” value is 3, the “Therapeutic Index = IC50 resting PBMC/IC50 cancer cell” value came to 3 and the “Therapeutic Index = IC50 stimulated PBMC/IC50 cancer cell” value came to 3. Further, the cell cycle arrest result in series [2] was “induces an S phase block at lower concentrations then a G2/M block at higher concentration”. Further, in series [3], the “Therapeutic Index = IC50 resting PBMC/IC50 cancer cell” value came to 3 and the “Therapeutic Index = IC50 stimulated PBMC/IC50 cancer cell” value worked out at 3. Moreover, the “Therapeutic Index = IC50 resting PBMC/IC50 cancer cell” value in series [4] (PBMC Stim, healthy lymphocyte, Table IV) is on record as 1. In addition, the “Therapeutic Index = IC50 stimulated PBMC/IC50 cancer cell, AVERAGE” value in series [4] (average across the 7 cancer cell lines, Table VII) was determined as 4. In series [5], the “degradation in human plasma” value is reported as “rapidly degraded to CB-03-05 in human plasma”.
